In PMC7891606 (Clinical Pharmacology in Drug Development, 2020):
“Also recorded” adds a separate entry of the source. Like-named read-outs stand apart in the source and are kept apart here.

Assays:
[1] = Safety and tolerability; assay type: in vivo, healthy Japanese adult males; conditions: for Tolerability: opicapone tablets 5 to 50 mg once daily for 11 days
[2] = previous pharmacokinetic study; cited from earlier work
[3] = Effect of opicapone on plasma L‐dopa and 3‐OMD exposure; assay type: in vivo, healthy Japanese adult males
[4] = clinical; conditions: male, human, in vivo, po, 100 mg
[5] = after metabolism by peripheral AADC and COMT; cited from earlier work
[6] = period 1, before opicapone
[7] = opicapone 50 mg, period 2, N 20
[8] = opicapone 50 mg, period 3, N 19

Cc1c(Cl)c(C)[n+]([O-])c(Cl)c1-c1noc(-c2cc(O)c(O)c([N+](=O)[O-])c2)n1 [Opicapone, opicapone]
Number (%) of Subjects Reporting Adverse Event: Diarrhea ([1]; opicapone 5 mg, period 3, N 20): 1 (5.0) Number (%) of Subjects
Number (%) of Subjects Reporting Adverse Event: Nausea ([1]; opicapone 25 mg, period 3, N 20): 3 (15.0) Number (%) of Subjects
Subjects who stopped treatment due to adverse event (infectious enteritis) ([1]; opicapone 50 mg cohort): 1 subject
Number (%) of Subjects Reporting Adverse Event: All ([1]; opicapone 50 mg, period 2 (opicapone once daily 11 days), N 20): 2 (10.0) Number (%) of Subjects
Number (%) of Subjects Reporting Adverse Event: Enteritis, infectious [1, 7]: 1 (5.0) Number (%) of Subjects
Number (%) of Subjects Reporting Adverse Event: Pharyngitis [1, 7]: 1 (5.0) Number (%) of Subjects
Number (%) of Subjects Reporting Adverse Event: Nausea [1, 8]: 5 (26.3) Number (%) of Subjects
Number (%) of Subjects Reporting Adverse Event: Vomiting [1, 8]: 3 (15.8) Number (%) of Subjects
Tolerability [1]: well tolerated; also recorded: well tolerated with no safety issues
Tolerability ([1]; listed as opicapone): well tolerated at all doses with no major safety issues
Causal relationship of adverse events to opicapone or L‐dopa/carbidopa ([1]; period 2): no adverse events reported in period 2 were thought to be related
Causal relationship of adverse events to opicapone or L‐dopa/carbidopa ([1]; period 3): at least possibly related
Increase of L‐dopa trough levels and extent of exposure compared with entacapone [2]: superior response to entacopone
Change of Cmax and AUC of 3‐OMD following opicapone administration ([3]; especially at the highest opicapone doses): decreased notably
Change of AUC of L‐dopa with increasing opicapone dose ([3]; opicapone 5-50 mg, plateau at 25 mg and higher): increased with increasing opicapone dose; also recorded: tended to increase with increasing opicapone dose; also recorded: plateau in the increase in L‐dopa exposure

N[C@@H](Cc1ccc(O)c(O)c1)C(=O)O [L‐dopa, levodopa]
Cmax [4]: 1950 ± 581 ng/mL
Tmax [4]: 30 min
Bioavailable dose in the brain [5]: approximately 1 % of the ingested dose
tmax in plasma (median (min-max)) ([6]; opicapone 5 mg cohort (A), first dose of L-dopa/carbidopa): 0.50 (0.50‐2.00) h
tmax in plasma (median (min-max)) ([6]; opicapone 10 mg cohort (B), second dose of L-dopa/carbidopa): 0.50 (0.50‐2.00) h
tmax in plasma (median (min-max)) ([6]; opicapone 50 mg cohort (D), first dose of L-dopa/carbidopa): 0.50 (0.50‐2.00) h
